Reference: patent publication US12139520B2 (priority 2020, dated 2024)
Bridge positions count the residues as written; N and C are the ends. Square brackets hold non-standard residues; d marks the D form. Peptide text beside a SMILES is read from it. Hyp = O=C(O)[C@@H]1C[C@@H](O)CN1; Cit = NC(=O)NCCC[C@H](N)C(=O)O

How the values were obtained:
[1] = target: hAM1 receptor (Homo sapiens, UniProt O60895+Q16602); assay: cAMP assay for in vitro receptor activation, hAM1-R; type: cell-based; conditions: cAMP assay, hAM1 receptor; read-out: hAM1R EC50
Chain of hAM1 receptor (Q16602 23-461): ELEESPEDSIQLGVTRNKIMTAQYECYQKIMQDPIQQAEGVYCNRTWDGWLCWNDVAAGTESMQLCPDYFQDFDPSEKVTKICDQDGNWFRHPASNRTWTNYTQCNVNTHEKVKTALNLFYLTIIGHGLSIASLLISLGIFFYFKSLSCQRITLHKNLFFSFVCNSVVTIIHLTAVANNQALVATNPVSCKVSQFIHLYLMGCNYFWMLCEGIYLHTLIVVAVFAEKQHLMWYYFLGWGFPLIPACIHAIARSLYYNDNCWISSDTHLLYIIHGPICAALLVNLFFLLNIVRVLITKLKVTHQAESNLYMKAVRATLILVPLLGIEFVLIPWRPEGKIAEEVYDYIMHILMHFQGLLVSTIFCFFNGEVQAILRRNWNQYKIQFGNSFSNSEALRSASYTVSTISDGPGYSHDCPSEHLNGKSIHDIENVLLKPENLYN
Chain of hAM1 receptor (O60895 43-175 partner): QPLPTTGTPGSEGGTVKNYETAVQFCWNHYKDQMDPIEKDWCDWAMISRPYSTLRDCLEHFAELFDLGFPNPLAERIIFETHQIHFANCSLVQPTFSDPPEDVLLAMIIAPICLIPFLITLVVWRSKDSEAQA
Procedure, shortened: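 A subcloned monoclonal line stably expressing hAM1 receptor is thawed and plated at 8000 cells/well. The assay buffer is DPBS with 0.05% casein and 0.5 mM IBMX, and receptor activation is followed by cAMP levels.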

[2] = target: T1, hAMY3 receptor (Homo sapiens, UniProt O60896+P30988); assay: cAMP assay for in vitro receptor activation, hAMY3-R; type: cell-based; conditions: cAMP assay, hAMY3 receptor; read-out: hAMY3R EC50
T1 sequence (P30988 25-474): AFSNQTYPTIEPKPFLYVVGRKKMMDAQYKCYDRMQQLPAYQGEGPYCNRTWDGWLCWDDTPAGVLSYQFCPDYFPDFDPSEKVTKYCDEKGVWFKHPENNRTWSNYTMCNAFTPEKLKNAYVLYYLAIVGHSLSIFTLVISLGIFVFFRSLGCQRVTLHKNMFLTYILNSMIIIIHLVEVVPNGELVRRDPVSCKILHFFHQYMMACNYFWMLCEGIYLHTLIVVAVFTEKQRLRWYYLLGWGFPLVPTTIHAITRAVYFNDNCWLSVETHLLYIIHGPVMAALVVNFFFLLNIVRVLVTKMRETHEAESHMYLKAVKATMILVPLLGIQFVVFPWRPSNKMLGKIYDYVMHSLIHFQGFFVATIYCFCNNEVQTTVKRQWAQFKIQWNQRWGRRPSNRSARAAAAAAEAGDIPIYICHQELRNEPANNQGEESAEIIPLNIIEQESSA
T1 sequence (O60896 24-148 partner): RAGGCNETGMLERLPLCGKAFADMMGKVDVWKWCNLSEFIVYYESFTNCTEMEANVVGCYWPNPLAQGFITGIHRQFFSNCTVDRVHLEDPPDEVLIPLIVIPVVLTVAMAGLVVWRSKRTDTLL
Procedure, shortened: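 Accumulated cAMP was detected by time-resolved FRET one hour after reagent addition. Beforehand, hAMY3-R-overexpressing monoclonal cells (2000/well, DPBS, 0.05% casein, 0.5 mM IBMX) received graded doses of compound for 30 min at room temperature; human amylin served as positive control.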

[3] = Physical stability of peptide analogues (Thioflavin T fibrillation); type: physicochemical; conditions: maximum ThT signal normalized between hAMY maximum and buffer background; 40° C., shaking, four days; pH 7 per table title
Procedure, shortened: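 Peptides in 50 mM sodium acetate pH 4 or 50 mM sodium phosphate pH 7 were preincubated 1 h, mixed with 4 μM ThT, held at 40° C with 700 rpm shaking before each read. Fluorescence (ex 450/em 480 nm) every 10 min for four days; LOESS-smoothed maximum signal normalized in percent between hAMY and buffer.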

EC50 [1] [nM] | EC50 [2] [nM] | Max ThT signal (%) [3] [%] | SMILES
> 5000 | 0.01 | 11.200 | CC[C@H](C)[C@H](NC(=O)[C@H](CCC(N)=O)NC(=O)[C@H](CC(=O)O)NC(=O)[C@H](C)NC(=O)[C@H](CC(C)C)NC(=O)[C@H](Cc1c[nH]c2ccccc12)NC(=O)[C@H](CC(N)=O)NC(=O)[C@@H](NC(=O)[C@@H](NC(=O)[C@@H]1CSSC[C@H](NC(=O)[C@@H](N)CCCNC(=N)N)C(=O)N[C@@H](CC(N)=O)C(=O)N[C@@H](C)C(=O)N[C@@H](CO)C(=O)N[C@@H]([C@@H](C)O)C(=O)N1)[C@@H](C)O)C(C)C)C(=O)N[C@H](C(=O)N[C@@H](CCC(N)=O)C(=O)N[C@@H](Cc1ccccc1)C(=O)N[C@@H](CO)C(=O)N[C@@H](CC(N)=O)C(=O)N[C@@H](CCCCN)C(=O)N[C@@H](CC(=O)O)C(=O)N[C@@H](CCCCN)C(=O)N[C@@H](C)C(=O)N[C@@H](CCC(N)=O)C(=O)N[C@H](C(=O)N[C@@H](CO)C(=O)N1CCC[C@H]1C(=O)N1CCC[C@H]1C(=O)N[C@H](C(=O)N[C@@H](CCC(=O)O)C(=O)N[C@H](C(=O)NCC(=O)N1CCC[C@H]1C(=O)N[C@@H](CC(N)=O)C(=O)N[C@@H](CO)C(=O)N1C[C@H](O)C[C@H]1C(N)=O)C(C)C)[C@@H](C)O)C(C)C)[C@@H](C)O [compound 307] (H-RCNASTCTVNWLADQITQFSNKDKAQVSPPTEVGPNS[Hyp]-NH2; disulfide 2-7; N-terminus assumed)
> 5000 | 0.009 | 16.750 | CC[C@H](C)[C@H](NC(=O)[C@H](CCC(N)=O)NC(=O)[C@H](Cc1c[nH]cn1)NC(=O)[C@H](C)NC(=O)[C@H](CC(C)C)NC(=O)[C@H](CCCNC(N)=O)NC(=O)[C@H](CCC(N)=O)NC(=O)[C@@H](NC(=O)[C@@H](NC(=O)[C@@H]1CSSC[C@H](NC(=O)[C@@H](N)CCCCN)C(=O)N[C@@H](CC(N)=O)C(=O)N[C@@H]([C@@H](C)O)C(=O)N[C@@H](C)C(=O)N[C@@H]([C@@H](C)O)C(=O)N1)[C@@H](C)O)C(C)C)C(=O)N[C@@H](Cc1ccc(O)cc1)C(=O)N[C@@H](CCC(N)=O)C(=O)N[C@@H](Cc1ccccc1)C(=O)N[C@H](C(=O)N[C@@H](CC(=O)O)C(=O)N[C@@H](CCCCN)C(=O)N[C@@H](CC(=O)O)C(=O)N[C@@H](CCCCN)C(=O)N[C@@H](CC(=O)O)C(=O)N[C@@H](CC(N)=O)C(=O)N[C@H](C(=O)N[C@@H](C)C(=O)N1CCC[C@H]1C(=O)N[C@@H](CCCNC(=N)N)C(=O)N[C@H](C(=O)N[C@@H](CCC(=O)O)C(=O)N[C@H](C(=O)NCC(=O)N[C@@H](CO)C(=O)N[C@@H](CC(N)=O)C(=O)NCC(=O)N[C@@H](Cc1ccc(O)cc1)C(N)=O)C(C)C)[C@@H](C)O)C(C)C)[C@@H](C)O [compound 272] (H-KCNTATCTVQ[Cit]LAHQIYQFTDKDKDNVAPRTEVGSNGY-NH2; disulfide 2-7; N-terminus assumed)
> 5000 | 0.009 | 11.100 | CC[C@H](C)[C@H](NC(=O)[C@H](CCC(N)=O)NC(=O)[C@H](Cc1c[nH]cn1)NC(=O)[C@H](C)NC(=O)[C@H](CC(C)C)NC(=O)[C@H](Cc1c[nH]c2ccccc12)NC(=O)[C@H](CCC(N)=O)NC(=O)[C@@H](NC(=O)[C@@H](NC(=O)[C@@H]1CSSC[C@H](NC(=O)[C@@H](N)CCCCN)C(=O)N[C@@H](CC(N)=O)C(=O)N[C@@H]([C@@H](C)O)C(=O)N[C@@H](C)C(=O)N[C@@H]([C@@H](C)O)C(=O)N1)[C@@H](C)O)C(C)C)C(=O)N[C@@H](Cc1ccc(O)cc1)C(=O)N[C@@H](CCC(N)=O)C(=O)N[C@@H](Cc1ccccc1)C(=O)N[C@H](C(=O)N[C@@H](CC(=O)O)C(=O)N[C@@H](CCCCN)C(=O)N[C@@H](C)C(=O)N[C@@H](CCCCN)C(=O)N[C@@H](CC(=O)O)C(=O)N[C@@H](CC(N)=O)C(=O)N[C@H](C(=O)N[C@@H](C)C(=O)N1CCC[C@H]1C(=O)N1CCC[C@H]1C(=O)N[C@H](C(=O)N[C@@H](CC(N)=O)C(=O)N[C@H](C(=O)NCC(=O)N[C@@H](CO)C(=O)N[C@@H](CC(N)=O)C(=O)NCC(=O)N1C[C@H](O)C[C@H]1C(N)=O)C(C)C)[C@@H](C)O)C(C)C)[C@@H](C)O [compound 320] (H-KCNTATCTVQWLAHQIYQFTDKAKDNVAPPTNVGSNG[Hyp]-NH2; disulfide 2-7; N-terminus assumed)
